These results are taken from patent US11964938B2, “3-phenyl-4-hexynoic acid derivatives as GPR40 agonists” (CELON PHARMA S.A., priority 2018, dated 2024).

One data set addresses T1, MRP4 (Homo sapiens, UniProt O15439).
T1 construct: host or cells: HEK293 (membrane vesicles)
T1 sequence (O15439 1-1325): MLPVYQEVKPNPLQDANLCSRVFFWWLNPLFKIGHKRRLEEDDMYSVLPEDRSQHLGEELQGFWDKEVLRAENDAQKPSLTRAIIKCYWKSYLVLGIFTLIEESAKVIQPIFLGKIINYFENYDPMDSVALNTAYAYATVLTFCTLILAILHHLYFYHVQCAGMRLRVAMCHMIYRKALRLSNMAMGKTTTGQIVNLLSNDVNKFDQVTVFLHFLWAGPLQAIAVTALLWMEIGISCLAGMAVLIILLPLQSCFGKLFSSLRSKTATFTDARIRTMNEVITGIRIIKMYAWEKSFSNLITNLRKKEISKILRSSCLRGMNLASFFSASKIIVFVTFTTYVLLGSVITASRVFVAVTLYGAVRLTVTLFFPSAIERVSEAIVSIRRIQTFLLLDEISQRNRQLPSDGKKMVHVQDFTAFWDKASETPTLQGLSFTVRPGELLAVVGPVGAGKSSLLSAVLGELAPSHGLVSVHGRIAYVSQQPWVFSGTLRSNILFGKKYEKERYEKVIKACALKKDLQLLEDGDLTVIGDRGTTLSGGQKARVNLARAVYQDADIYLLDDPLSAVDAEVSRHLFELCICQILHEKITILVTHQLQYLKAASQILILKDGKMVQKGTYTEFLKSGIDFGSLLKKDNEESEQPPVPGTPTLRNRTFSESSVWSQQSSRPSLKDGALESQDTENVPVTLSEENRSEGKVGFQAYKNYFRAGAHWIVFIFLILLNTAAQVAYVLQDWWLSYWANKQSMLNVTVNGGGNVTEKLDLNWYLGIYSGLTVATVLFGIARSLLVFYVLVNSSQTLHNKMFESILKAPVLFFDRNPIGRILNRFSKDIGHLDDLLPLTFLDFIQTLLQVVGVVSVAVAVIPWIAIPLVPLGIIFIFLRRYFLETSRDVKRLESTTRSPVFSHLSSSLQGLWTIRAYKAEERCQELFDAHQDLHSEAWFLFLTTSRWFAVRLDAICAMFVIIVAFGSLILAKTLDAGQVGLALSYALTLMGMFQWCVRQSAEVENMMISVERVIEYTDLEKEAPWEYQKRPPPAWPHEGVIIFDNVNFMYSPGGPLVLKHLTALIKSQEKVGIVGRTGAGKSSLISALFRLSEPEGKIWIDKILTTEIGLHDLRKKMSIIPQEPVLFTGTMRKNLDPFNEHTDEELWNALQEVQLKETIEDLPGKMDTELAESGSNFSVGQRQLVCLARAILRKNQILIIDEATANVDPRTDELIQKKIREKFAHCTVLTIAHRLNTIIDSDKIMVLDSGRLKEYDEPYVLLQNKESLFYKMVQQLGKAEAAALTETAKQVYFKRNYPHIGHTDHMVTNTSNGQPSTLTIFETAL
In words: Vesicular transport inhibition assay, MRP4. Type of data set: biochemical. The conditions noted are these: membrane vesicles from HEK293 cells. The procedure: (§1) Experiment B4: Bile Acid Transporters Inhibition in the Liver. […] The compound was tested on a panel of 10 transporters: BSEP, MRP2, MRP3, MRP4 in a vesicular transport inhibition assay and NTCP, OAT1, OAT2v1, OATP1A2, OATP1B1, OATP1B3 in an uptake transporter inhibition assays. Vesicular transport inhibition assay was performed on membrane vesicles isolated from mammal HEK293 cells overexpressing human ABC transporters. Tested compound were incubated with vesicles and substrates for respective tested transporters. Incubation was performed in the presence of 4 mM ATP or AMP in order to differentiate between uptake by a transporter and passive diffusion into vesicles. In the case of MRP2 and MRP3, reactions were performed in the presence of 2 mM glutathione. Tested compounds were added to the reaction mixture dissolved in 0.75 μl of a solvent (1% of final incubation volume). Reaction mixtures were preincubated for 15 minutes at 37±1° C. Reactions were started by the addition of 25 μl of 12 mM MgATP (or 12 mM AMP) in test buffer, as a background control, separately preincubated.

The target in a further data set is T2, MRP3 (Homo sapiens, UniProt O15438).
T2 construct: host or cells: HEK293 (membrane vesicles)
T2 sequence (O15438 whole entry): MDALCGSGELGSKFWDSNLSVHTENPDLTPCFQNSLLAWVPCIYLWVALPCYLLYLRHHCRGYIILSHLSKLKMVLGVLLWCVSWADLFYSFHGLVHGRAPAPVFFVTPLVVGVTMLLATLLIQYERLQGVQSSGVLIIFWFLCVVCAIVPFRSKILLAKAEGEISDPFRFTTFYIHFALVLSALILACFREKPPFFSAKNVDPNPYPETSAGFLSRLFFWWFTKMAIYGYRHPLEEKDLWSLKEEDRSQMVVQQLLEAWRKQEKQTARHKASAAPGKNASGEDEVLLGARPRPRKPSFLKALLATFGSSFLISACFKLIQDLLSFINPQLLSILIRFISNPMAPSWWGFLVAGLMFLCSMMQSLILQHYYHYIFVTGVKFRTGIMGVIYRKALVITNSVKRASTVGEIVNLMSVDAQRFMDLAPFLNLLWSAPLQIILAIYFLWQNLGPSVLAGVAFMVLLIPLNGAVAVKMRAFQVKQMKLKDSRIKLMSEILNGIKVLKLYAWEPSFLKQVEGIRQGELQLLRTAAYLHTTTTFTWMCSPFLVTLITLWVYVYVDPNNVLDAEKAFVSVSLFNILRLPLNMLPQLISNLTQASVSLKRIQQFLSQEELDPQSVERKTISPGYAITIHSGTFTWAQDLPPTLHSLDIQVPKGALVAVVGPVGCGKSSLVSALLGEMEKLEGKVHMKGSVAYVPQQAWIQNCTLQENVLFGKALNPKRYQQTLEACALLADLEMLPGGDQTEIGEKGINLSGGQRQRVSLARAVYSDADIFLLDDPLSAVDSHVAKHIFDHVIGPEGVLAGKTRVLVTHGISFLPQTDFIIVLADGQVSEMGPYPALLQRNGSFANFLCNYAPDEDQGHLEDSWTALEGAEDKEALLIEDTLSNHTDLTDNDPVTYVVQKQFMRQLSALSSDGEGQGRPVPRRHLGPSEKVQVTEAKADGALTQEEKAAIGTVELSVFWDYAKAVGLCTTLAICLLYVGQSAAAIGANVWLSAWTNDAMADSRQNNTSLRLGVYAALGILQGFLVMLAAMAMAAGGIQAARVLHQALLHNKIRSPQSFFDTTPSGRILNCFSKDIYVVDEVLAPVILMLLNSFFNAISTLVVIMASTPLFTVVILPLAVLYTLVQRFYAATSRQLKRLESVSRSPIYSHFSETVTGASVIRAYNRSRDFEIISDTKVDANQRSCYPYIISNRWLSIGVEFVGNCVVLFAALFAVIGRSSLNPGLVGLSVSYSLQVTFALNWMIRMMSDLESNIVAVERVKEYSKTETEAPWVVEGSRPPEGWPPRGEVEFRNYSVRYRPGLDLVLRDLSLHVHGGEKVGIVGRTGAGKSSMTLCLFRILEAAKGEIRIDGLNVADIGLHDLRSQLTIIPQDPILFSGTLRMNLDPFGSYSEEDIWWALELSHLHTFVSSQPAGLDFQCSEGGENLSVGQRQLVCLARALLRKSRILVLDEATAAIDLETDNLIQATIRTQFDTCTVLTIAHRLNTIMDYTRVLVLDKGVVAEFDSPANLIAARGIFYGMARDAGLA
Briefly: Vesicular transport inhibition assay, MRP3. Type of data set: biochemical. The conditions noted are these: membrane vesicles from HEK293 cells. The procedure: as §1

In a further data set the target is T3, OAT2v1 (Homo sapiens, UniProt Q9Y694).
T3 construct: host or cells: HEK293
T3 sequence (Q9Y694 1-546 isoform Q9Y694-2): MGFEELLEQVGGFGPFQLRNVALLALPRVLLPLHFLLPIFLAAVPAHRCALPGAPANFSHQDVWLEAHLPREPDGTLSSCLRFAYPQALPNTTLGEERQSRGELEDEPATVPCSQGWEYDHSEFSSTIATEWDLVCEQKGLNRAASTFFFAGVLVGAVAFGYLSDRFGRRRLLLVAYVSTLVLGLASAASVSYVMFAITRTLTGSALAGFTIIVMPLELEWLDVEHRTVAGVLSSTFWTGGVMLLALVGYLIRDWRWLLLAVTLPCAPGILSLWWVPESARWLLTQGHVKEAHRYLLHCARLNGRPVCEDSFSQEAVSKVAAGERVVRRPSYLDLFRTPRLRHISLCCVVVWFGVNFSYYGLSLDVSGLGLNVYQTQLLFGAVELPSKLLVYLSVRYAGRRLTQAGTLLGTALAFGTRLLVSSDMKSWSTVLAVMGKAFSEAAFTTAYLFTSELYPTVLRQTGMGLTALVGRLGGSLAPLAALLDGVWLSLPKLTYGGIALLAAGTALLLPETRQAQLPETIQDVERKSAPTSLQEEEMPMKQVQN
In words: Uptake transporter inhibition assay, OAT2v1. Type of data set: cell-based. The following applies: HEK293 cells overexpressing transporter. The procedure: Experiment B4: Bile Acid Transporters Inhibition in the Liver.
The compound was tested on a panel of 10 transporters: BSEP, MRP2, MRP3, MRP4 in a vesicular transport inhibition assay and NTCP, OAT1, OAT2v1, OATP1A2, OATP1B1, OATP1B3 in an uptake transporter inhibition assays.
Transporter uptake inhibition test was performed on mammal HEK293 cells overexpressing of a respective transporter. Cells were cultured at 37±1° C. and seeded on 96-well tissue culture plate at 1×10^5/well. Substrate was removed prior to experiment and cells were washed twice with 100 μl of respective buffer (HK pH 7.4 for OATP1B1 and HBSS pH 7.4 for NTCP, OAT1, OAT2v1, OATP1A2, and OATP1B3). Uptake studies were performed at 37±1° C. in 50 μl of respective buffer containing radioactively tagged substrate and tested compound or solvent.
After experiment cells were washed twice with 100 μl of ice-cold respective buffer and lysed with 50 μl of 0.1M NaOH. Transport of radioactively tagged substrate was determined by scintillation counter measurement.

Structures are written as SMILES. pIC50: −log10 of the molar value. Structures can show the parent of a compound that is named as a salt.

In general, pIC50 refers to the negative decadic logarithm of the IC50, by convention in mol/L. Lower therefore signals a large IC50. As to `Cc1cc(OCCCS(C)(=O)=O)cc(C)c1-c1cccc(COc2ccc3c(c2)OC[C@H]3CC(=O)O)c1` [Example R1, 2[(3S)-6-({3-[4-(3-methanesulfonylpropoxy)-2,6-dimethylphenyl]-phenyl}methoxy)-2,3-dihydro-1-benzofuran-3-yl]acetic acid, reference compound], the pIC50 on MRP4 was 5.16; at MRP3 (2 mM glutathione), 4.50; against OAT2v1, 4.20.

Turning to `CC#C[C@@H](CC(=O)O)c1ccc(OCC(C)=C(C)C)cc1` [Example S1, (3S)-3-{4-[(2,3-dimethylbut-2-en-1-yl)oxy]phenyl}hex-4-ynoic acid calcium salt], the pIC50 is 3.88 at MRP4, less than 4.00 on MRP3 (symbol per footnote) and less than 3.52 against OAT2v1.
